The results in this text go back to patent publication US20210171604A1, “PEPTIDES FOR THE TREATMENT OF TYPE 2 DIABETES” (YISSUM RESEARCH DEVELOPMENT COMPANY OF THE HEBREW …, priority 2017, published 2021).

One test concerns male C57BL mice. Kind of test: Inhibition of starvation-induced insulin resistance (blood glucose after 8 h starvation). To be noted: for inhibition of insulin-resistance developed in the course of starvation: i.p. ~35 mg/kg, 8 h starvation, compared to vehicle; for % blood glucose decrease following 8 h starvation / Mean blood glucose after 8 h starvation (% of time 0): i.p. 1 mg/mouse (~35 mg/kg); for % blood glucose decrease following 8 h starvation: compared with time 0; for inhibition of starvation-induced insulin-resistance (words, FIG. 1): Example 5, 20 mg/kg i.p., relative change in blood glucose compared to time 0 (=100%); for Mean blood glucose after 8 h starvation (% of time 0): level after 8 h starvation compared to t0 (=100%), vehicle 90.3. The format is in vivo. The protocol:
Protocol: Blood glucose was measured in the morning (time 0). The mice were then injected intraperitoneally with a peptide (1 mg/mouse=˜35 mg/kg) or with a vehicle and placed in a cage with water but no food. After 8 hrs starvation, blood glucose was measured again and the mice were supplied with food. […]
The ability of the peptides ACD-403.3, ACD-047.7 and ACD-040.2 described in Example 1 above, to inhibit insulin-resistance induced by starvation was tested in mice (male C57BL mice ˜9-10 wks old).
Peptides' solutions for injection were prepared as follows: 5 mg peptide were dissolved in 1 ml of a solution composed of 5% hydroxypropyl-beta-cyclodextrin (HPβCD)+2% Propylene glycol (PG)+2% Tween-80 in DDW (Wt/Vol). If needed, the solution was warmed up to 80° C. to facilitate peptide solubilization. 0.2 ml of this solution, or from a vehicle (no peptide), were injected i.p. into the mice.
The results, summarized in Table 4 below, are expressed as % change in blood glucose level after 8 h starvation, compared to t0 (=100%), as well as % decrease in blood glucose after 8 hrs starvation, compared with blood glucose at time 0. A higher decrease in glucose levels in the blood indicates better intake of glucose by cells, which reflects better inhibition of the starvation-induced insulin resistance. […]

The subject of test [1] is obese diabetic mice (db/db). In words: Blood glucose response of obese diabetic (db/db) mice to peptide treatment. The settings on record: for Blood glucose: mean, n=3; for % change from time point (−4) in blood glucose: compared to first baseline (241 mg/dL). The format is in vivo. The protocol:
ACD-004 was tested for its effect on hyperglycemia in obese diabetic mice (db/db).
Protocol: Mice (n=3) were kept on normal, unlimited diet. Prior to peptide treatment, baseline measurements of blood glucose and body weight were taken every ˜3 weeks through a period of 2.5 months (see time points (−1)-(−4) in Table 3 below). Injections of the peptide (intraperitoneally, ˜35 mg/kg) started on time point 0 and continued on time points 1 and 2, twice a day. Blood glucose and body weight were measured at the indicated days.
The results, summarized in Table 3, are expressed as mean % change in blood glucose compared to the first baseline measurement (time point (−4)).
Mice (n=16) were kept on normal, unlimited diet. Injections of the peptide (i.p., 20 mg/kg, n=9) or vehicle (i.p., n=7) started at 3-4 m of age (time point ‘0’) and continued for 3 days, once a day. In a similar experiment the peptide […] were injected to mice with severe diabetes for 7 days.

Setting [2] is: DMSO/Brij-97 vehicle, vehicle 14%.
Setting [3] is: HPβCD/PG/Tween-80 vehicle, vehicle 9.7%.

Marks after values point to notes of the source that are not given here. [ ]: non-standard residue; d: D form. The star is where a group is joined. Stearoyl = CCCCCCCCCCCCCCCCCC(=O)*; Myristoyl = CCCCCCCCCCCCCC(=O)*; Nle = CCCC[C@H](N)C(=O)O; Nva = CCC[C@H](N)C(=O)O

Turning to “Myr-G-F-T-K-G-Q-V-T-NH2 (Myristoyl-GFTKGQVT-NH2; SMILES CCCCCCCCCCCCCC(=O)NCC(=O)N[C@@H](Cc1ccccc1)C(=O)N[C@H](C(=O)N[C@@H](CCCCN)C(=O)NCC(=O)N[C@@H](CCC(N)=O)C(=O)N[C@H](C(=O)N[C@H](C(N)=O)[C@@H](C)O)C(C)C)[C@@H](C)O) [ACD-005, myristoylated, amidated peptide derived from h-HIF1α]”, the “inhibition of insulin-resistance developed in the course of starvation” value (“inhibition … in the course of starvation” for short) in the test with male C57BL mice (Example 2) is on record as “effectively inhibited insulin-resistance”. Moreover, in the test on male C57BL mice (setting [2]), the “% blood glucose decrease following 8 h starvation” value turned out to be 49%.

For the substance “Myr-G-R-N-F-Q-K-G-Q-V-T-R-NH2 (Myristoyl-GRNFQKGQVTR-NH2; SMILES CCCCCCCCCCCCCC(=O)NCC(=O)N[C@@H](CCCNC(=N)N)C(=O)N[C@@H](CC(N)=O)C(=O)N[C@@H](Cc1ccccc1)C(=O)N[C@@H](CCC(N)=O)C(=O)N[C@@H](CCCCN)C(=O)NCC(=O)N[C@@H](CCC(N)=O)C(=O)N[C@H](C(=O)N[C@H](C(=O)N[C@@H](CCCNC(=N)N)C(N)=O)[C@@H](C)O)C(C)C) [ACD-004, myristoylated, C-terminally amidated peptide derived from h-HO-1]”, the “inhibition … in the course of starvation” value in the test on male C57BL mice (Example 2) was “effectively inhibited insulin-resistance”. Moreover, the “% blood glucose decrease following 8 h starvation” value in the test with male C57BL mice (setting [2]) is 47%. Besides, the “Blood glucose” value in test [1] (ACD-004 i.p. ~35 mg/kg twice a day at time points 0-2, time point 3, age 18.3 wks) is given as 105 mg/dL; in test [1] (ACD-004 i.p. ~35 mg/kg twice a day from time point 0, time point 1, age 17.9 wks), 177 mg/dL; in test [1] (ACD-004 i.p. ~35 mg/kg twice a day from time point 0, time point 2, age 18.1 wks), 139 mg/dL. For the same substance, the “effect on blood glucose levels in diabetic mice” value in test [1] (Example 3, i.p. ~35 mg/kg twice a day) is listed as “effectively reduced blood glucose levels”. For the same substance, the “% change from time point (−4) in blood glucose” value in test [1] (time point 1) was −27%; in test [1] (time point 2), −42%; in test [1] (time point 3), −56%.

With “Myr-G-R-N-I-Q-K-G-Q-V-T-R-NH2 (Myristoyl-GRNIQKGQVTR-NH2; SMILES CCCCCCCCCCCCCC(=O)NCC(=O)N[C@@H](CCCNC(=N)N)C(=O)N[C@@H](CC(N)=O)C(=O)N[C@H](C(=O)N[C@@H](CCC(N)=O)C(=O)N[C@@H](CCCCN)C(=O)NCC(=O)N[C@@H](CCC(N)=O)C(=O)N[C@H](C(=O)N[C@H](C(=O)N[C@@H](CCCNC(=N)N)C(N)=O)[C@@H](C)O)C(C)C)[C@@H](C)CC) [ACD-047.8]”, the “inhibition of starvation-induced insulin-resistance (words, FIG. 1)” value (shortened to “inhibition … (words, FIG. 1)”) in the test with male C57BL mice was “inactive”.

Regarding “Myr-G-R-N-L-Q-K-G-Q-V-T-R-NH2 (Myristoyl-GRNLQKGQVTR-NH2; SMILES CCCCCCCCCCCCCC(=O)NCC(=O)N[C@@H](CCCNC(=N)N)C(=O)N[C@@H](CC(N)=O)C(=O)N[C@@H](CC(C)C)C(=O)N[C@@H](CCC(N)=O)C(=O)N[C@@H](CCCCN)C(=O)NCC(=O)N[C@@H](CCC(N)=O)C(=O)N[C@H](C(=O)N[C@H](C(=O)N[C@@H](CCCNC(=N)N)C(N)=O)[C@@H](C)O)C(C)C) [ACD-047.7, myristoylated, amidated peptide derived from h-HO-1]”, the “inhibition … in the course of starvation” value in the test with male C57BL mice (Example 4) is “effectively inhibited insulin-resistance”. For the same substance, the “inhibition … (words, FIG. 1)” value in the test on male C57BL mice is listed as “inhibited significantly”. For the same substance, in the test on male C57BL mice (setting [3]), the “% blood glucose decrease following 8 h starvation” value is recorded as 39.2%. Besides, the “Mean blood glucose after 8 h starvation (% of time 0)” value (“Mean blood glucose … (% of time 0)” below) in the test with male C57BL mice (HPβCD/PG/Tween-80 vehicle) is 60.8** %.

Turning to “Myr-G-R-N-Nle-Q-K-G-Q-V-T-R-NH2 (Myristoyl-GRN[Nle]QKGQVTR-NH2; SMILES CCCCCCCCCCCCCC(=O)NCC(=O)N[C@@H](CCCNC(=N)N)C(=O)N[C@@H](CC(N)=O)C(=O)N[C@@H](CCCC)C(=O)N[C@@H](CCC(N)=O)C(=O)N[C@@H](CCCCN)C(=O)NCC(=O)N[C@@H](CCC(N)=O)C(=O)N[C@H](C(=O)N[C@H](C(=O)N[C@@H](CCCNC(=N)N)C(N)=O)[C@@H](C)O)C(C)C) [ACD-047.9]”, the “inhibition … (words, FIG. 1)” value in the test on male C57BL mice is “inactive”.

On to “Myr-G-R-N-NorVal-Q-K-G-Q-V-T-R-NH2 (Myristoyl-GRN[Nva]QKGQVTR-NH2; SMILES CCCCCCCCCCCCCC(=O)NCC(=O)N[C@@H](CCCNC(=N)N)C(=O)N[C@@H](CC(N)=O)C(=O)N[C@@H](CCC)C(=O)N[C@@H](CCC(N)=O)C(=O)N[C@@H](CCCCN)C(=O)NCC(=O)N[C@@H](CCC(N)=O)C(=O)N[C@H](C(=O)N[C@H](C(=O)N[C@@H](CCCNC(=N)N)C(N)=O)[C@@H](C)O)C(C)C) [ACD-040.2, myristoylated, amidated peptide derived from h-HO-1]”, for which the “inhibition … in the course of starvation” value in the test on male C57BL mice (Example 4) is on record as “effectively inhibited insulin-resistance”. Also, the “% blood glucose decrease following 8 h starvation” value in the test with male C57BL mice (setting [3]) turned out to be 36.6%. Moreover, the “Mean blood glucose … (% of time 0)” value with male C57BL mice (HPβCD/PG/Tween-80 vehicle) is 63.4** %.

“Stear-G-R-N-F-Q-K-G-Q-V-T-R-NH2 (Stearoyl-GRNFQKGQVTR-NH2; SMILES CCCCCCCCCCCCCCCCCC(=O)NCC(=O)N[C@@H](CCCNC(=N)N)C(=O)N[C@@H](CC(N)=O)C(=O)N[C@@H](Cc1ccccc1)C(=O)N[C@@H](CCC(N)=O)C(=O)N[C@@H](CCCCN)C(=O)NCC(=O)N[C@@H](CCC(N)=O)C(=O)N[C@H](C(=O)N[C@H](C(=O)N[C@@H](CCCNC(=N)N)C(N)=O)[C@@H](C)O)C(C)C) [ACD-400.3, identical to ACD-004 except N-terminal acyl group is stearoyl instead of myristoyl]”: the “blood glucose following 7-day treatment (words, FIG. 3)” value in test [1] ((db/db) mice with severe diabetes, injected for 7 days, vs vehicle) is “outstanding decrease in blood glucose”. Besides, the “blood glucose following 3-day treatment (words, FIG. 2)” value in test [1] (i.p. 20 mg/kg once a day for 3 days, n=9 vs vehicle n=7) was “outstanding decrease in blood glucose”.

In the case of “Stear-G-R-N-H-Q-K-G-Q-V-T-R-NH2 (Stearoyl-GRNHQKGQVTR-NH2; SMILES CCCCCCCCCCCCCCCCCC(=O)NCC(=O)N[C@@H](CCCNC(=N)N)C(=O)N[C@@H](CC(N)=O)C(=O)N[C@@H](Cc1c[nH]cn1)C(=O)N[C@@H](CCC(N)=O)C(=O)N[C@@H](CCCCN)C(=O)NCC(=O)N[C@@H](CCC(N)=O)C(=O)N[C@H](C(=O)N[C@H](C(=O)N[C@@H](CCCNC(=N)N)C(N)=O)[C@@H](C)O)C(C)C) [ACD-403.3, stearoylated, amidated peptide derived from h-HO-1]”, the “inhibition … in the course of starvation” value in the test on male C57BL mice (Example 4) is recorded as “effectively inhibited insulin-resistance”. The “% blood glucose decrease following 8 h starvation” value in the test on male C57BL mice (setting [3]) is reported as 36.7%. Also, the “Mean blood glucose … (% of time 0)” value in the test with male C57BL mice (HPβCD/PG/Tween-80 vehicle) is 63.3** %.
